Converted amounts (≈) assume the structure as drawn.
Key:
[1] = test system: Human Rhinovirus serotypes HRV- 2,-29,-39,-85,-9,-15,-51,-59,-63,-89,-41; test: Picornavirus Minimal Inhibitory Concentration Test (cytopathic effect reduction assay), first panel of rhinoviruses; assay type: cell-based; conditions: Human rhinovirus sp.; medium value of the IC50-values of all serotypes of the first panel; Ohio Hela cells, 3 to 5 days at 33°C; concentration protecting 50% of the cells from cytopathic effects; read-out: Med₁
Procedure: (§1) The Minimal Inhibitory Concentration of the compounds of the present invention against the Human Rhinovirus strains (HRV) -2,-9,-14,-15,-29,-39,-41,-42,-45,-51,-59,-63, -70,-72,-85,-86,-89 was determined by a standard cytopathic effect reduction assay as follows. To each of the ninty six (96) wells of a microtiter 96 well tissue culture plate there was added 60 µl of a Ohio Hela cell maintenance medium [Eagle's Basal medium supplemented with 5% Foetal Calf Serum (FCS)]. To two wells there was added 60 µl of an appropriate starting dilution of a compound of formula (I) and two-fold dilutions were made to cover a wide range of compound concentrations. Subsequently there were added 120 µl of an infectious solution of virus in Eagle's Basal Medium with 2% Hepes buffer, 2% FCS and 30 mM MgCl₂ to all wells except cell and compound controls. Said infectious virus solution having a TCID₅₀-value (Tissue Culture Infectious Dose) of about 100.
(§2) The TCID₅₀-value is the dose of viruses which initiates a cytopathic effect in 50% of the inoculated cells. 150 µl of the thus obtained virus-compound mixtures were then transferred to microtitre plates with subconfluent Ohio Hela Cells, grown in 100 µl of maintenance medium. Appropriate virus controls, cell controls and compound controls were included in each test. […] The IC₅₀-value for each virus-compound series was taken as the concentration in ng/ml that protected 50% of the cells from cytopathic effects with respect to the untreated controls. In the standard test procedure, the compounds were tested against two panels of rhinoviruses, a first panel consisting of serotypes HRV- 2,-29,-39,-85,-9,-15,-51,-59,-63,-89,-41 and the other panel consisting of HRV-42,-45,-14,-70,-72 and -86.
(§3) The IC₅₀-value for each rhinovirus serotype was determined, and the efficacy of each compound was determined in terms of the Med₁-value and Med₂-value, which is the medium value of the IC₅₀-values of all serotypes from the first and second panel respectively.

[2] = test system: Human Rhinovirus serotypes HRV-42,-45,-14,-70,-72 and -86; test: Picornavirus Minimal Inhibitory Concentration Test (cytopathic effect reduction assay), second panel of rhinoviruses; assay type: cell-based; conditions: Human rhinovirus sp., HRV42, HeLa, read-out: Med₂
Procedure: as §1, §2, §3

## CCOC(=O)c1ccc(OCCC2CN(c3ccc(Cl)nn3)CCO2)cc1 (stereo not drawn) [compound 11]
[1]
  IC50: 6 ng/mL (≈ 0.0153 µM)
[2]
  IC50: 29 ng/mL (≈ 0.074 µM)

## CCOC(=O)c1ccc(OCCC2CN(c3ccc(Br)nn3)CCO2)cc1 (stereo not drawn) [compound 17]
[1]
  IC50: 2 ng/mL (≈ 0.00458 µM)
[2]
  IC50: 22 ng/mL (≈ 0.0504 µM)

## CCOC(=O)c1ccc(OCCC2CN(c3ccc(I)nn3)CCO2)cc1 (stereo not drawn) [compound 20]
[1]
  IC50: 2 ng/mL (≈ 0.00414 µM)
[2]
  IC50: 12 ng/mL (≈ 0.0248 µM)

## CCOC(=O)c1ccc(OCCC2CN(c3nnc(C)s3)CCO2)cc1 (stereo not drawn) [compound 21]
[1]
  IC50: 6 ng/mL (≈ 0.0159 µM)
[2]
  IC50: 21 ng/mL (≈ 0.0556 µM)

## CCOC(=O)c1ccc(OCCC2CN(c3ccc(SC)nn3)CCO2)cc1 (stereo not drawn) [compound 23, ethyl 4-[2-[4-[6-(methylthio)-3-pyridazinyl]-2-morpholinyl]ethoxy]benzoate]
[1]
  IC50: 3 ng/mL (≈ 0.00743 µM)
[2]
  IC50: 12 ng/mL (≈ 0.0297 µM)

## CCOC(=O)c1ccc(OCCC2CN(c3ccc(C)nn3)CCO2)cc1 (stereo not drawn) [compound 26]
[1]
  IC50: 5 ng/mL (≈ 0.0135 µM)
[2]
  IC50: 29 ng/mL (≈ 0.0781 µM)

From patent EP0398426A1, “Antirhinoviral (thio)morpholinyl and piperazinyl alkylphenol ethers” (JANSSEN PHARMACEUTICA N.V., priority 1989, dated 1990)
